Values after ≈ are worked out from the molar mass of the structure shown.
Legend:
Format in all cases: cell-based
Ent. cloacae 45 = assay: MIC by agar dilution method; details: Enterobacter cloacae, 37° C., 18 hours
Description: (§1) The MIC is measured by an agar dilution method based on the standard method of the Japanese Society of Chemotherapy (Japanese Society of Chemotherapy: The Revised Method of Determination of MIC Values, Chemotherapy 22, 1126-1128, […]). Specifically, the antibiotic is serially diluted with a 1/50 M phosphate buffer at a pH of 7.3 to prepare a twofold dilution series. One milliliter of each dilution and 9 ml of an agar medium (Heart Infusion Agar; a product of Difco Laboratories) are mixed and allowed to solidify in a Petri dish having a diameter of 9 cm. One loopful of the stock culture of the test microbe is inoculated in trypto-soy buillon (a product of Eiken Kagaku Co., Ltd.) and incubated at 37° C. for 18 hours. The resulting culture broth is diluted to a concentration of about 10^6 cells/ml with physiological saline and inoculated on the agar plate by means of a microplanter.

Comamonas terrigena B996 = assay: MIC by agar dilution method; details: 37° C., 18 hours
Description: as §1

[1] = test system: Staphylococcus aureus 209P; assay: MIC by agar dilution method; details: 37° C., 18 hours
Description: as §1

[2] = test system: Citrobacter Freundii GN346; assay: MIC by agar dilution method; details: 37° C., 18 hours
Description: as §1

Alcaligenes Faecolis A1 = assay: MIC by agar dilution method; details: Alcaligenes Faecolis A1; agar dilution, 37° C., 18 hours; read-out: MIC
Description: as §1

Ser. marcesceus T55 = assay: MIC by agar dilution method; details: 37° C., 18 hours
Description: as §1

P. vulgaris GN76 = assay: MIC by agar dilution method; details: Proteus vulgaris, 37° C., 18 hours
Description: as §1

[3] = test system: Pseudomonas aenginosa IFO3445; assay: MIC by agar dilution method; details: 37° C., 18 hours
Description: as §1

[4] = test system: Klebsiella pneumoniae K13; assay: MIC by agar dilution method; details: 37° C., 18 hours
Description: as §1

Ent. sp. E8 = assay: MIC by agar dilution method; details: Ent. sp. E8; agar dilution, 37° C., 18 hours; read-out: MIC
Description: as §1

S. aureus Smith = assay: MIC by agar dilution method; details: Staphylococcus aureus, 37° C., 18 hours
Description: as §1

Escherichia coli K-12 = assay: MIC by agar dilution method; details: K12; Escherichia coli K-12; agar dilution, 37° C., 18 hours; read-out: MIC
Description: as §1

S. aureus Russell = assay: MIC by agar dilution method; details: Staphylococcus aureus; S. aureus Russell; agar dilution, 37° C., 18 hours; read-out: MIC
Description: as §1

Proteus mirabilis P6 = assay: MIC by agar dilution method; details: Proteus mirabilis P6; agar dilution, 37° C., 18 hours; read-out: MIC
Description: as §1

Serratia marcesceus S18 = assay: MIC by agar dilution method; details: 37° C., 18 hours
Description: as §1

Ps. aeruginosa NCTC10490 = assay: MIC by agar dilution method; details: Pseudomonas aeruginosa, 37° C., 18 hours
Description: as §1

Sarcina lutea S19 = assay: MIC by agar dilution method; details: Micrococcus luteus, 37° C., 18 hours
Description: as §1

[5] = test system: Bacillus subtillis ATCC 6633; assay: MIC by agar dilution method; details: Bacillus, ATCC6633, 18 h
Description: as §1

P. rettgeri P7 = assay: MIC by agar dilution method; details: Providencia rettgeri; P. rettgeri P7; agar dilution, 37° C., 18 hours; read-out: MIC
Description: as §1

Providencia sp. P8 = assay: MIC by agar dilution method; details: Providencia sp. P8; agar dilution, 37° C., 18 hours; read-out: MIC
Description: as §1

S. epidermidis = assay: MIC by agar dilution method; details: Staphylococcus epidermidis, 37° C., 18 hours
Description: as §1

[6] = test system: Enterobacter aerogenes E19; assay: MIC by agar dilution method; details: Klebsiella aerogenes, 37° C., 18 hours
Description: as §1

E. coli RGN823 = assay: MIC by agar dilution method; details: Escherichia coli, 37° C., 18 hours
Description: as §1

[7] = test system: Citrobacter Freundii GN346; assay: Disc assay of synergy, inhibition zones; details: disc OA-6129B2, PS-5 100 μg/ml, CER, PCG 1000 μg/ml
Description: (§2) (B) The presence or absence of synergy is visually checked by the size difference in inhibitory zones observed when the test drug is disc-assayedon an agar plate of a detector microbe and on an agar plate of the detector containing cephaloridine or benzylpenicillin, respectively.
(§3) One loopful of the stock culture of a test organism is inoculated in heat infusion broth (5 ml/tube), and grown at 37° C. for 18 hours. The culture broth is diluted to a final concentration of about 10^5 cells/ml in nutrient agar with or without benzyl penicillin or cephaloridine, and plated in a Petri dish with a diameter of 9 cm, as shown below.
(§4) Using the above-prepared agar plates, antibiotic PS-5 (100 μg/ml), antibiotic OA-6129B2 (5,6-trans OA-6129B) (100 μg/ml), benzylpenicillin (1000 μg/ml) and cephaloridine (1000 μg/ml) are subjected to disc assay.

Proteus vulgaris GN76 [8] = assay: Disc assay of synergy, inhibition zones; details: disc OA-6129B2, PS-5 100 μg/ml, CER, PCG 1000 μg/ml
Description: as §2, §3, §4

Enterobacter cloacac 45 = assay: Disc assay of synergy, inhibition zones; details: disc OA-6129B2, PS-5 100 μg/ml, CER, PCG 1000 μg/ml
Description: as §2, §3, §4

Serratia marccscens T55 = assay: Disc assay of synergy, inhibition zones; details: disc OA-6129B2, PS-5 100 μg/ml, CER, PCG 1000 μg/ml
Description: as §2, §3, §4

[9] = test system: Citrobacter Freundii GN346; assay: Synergistic effect on MIC, microdilution transfer plate technique
Proteus vulgaris GN76 [10] = assay: as above

CC(O)[C@H]1C(=O)N2C(C(=O)O)=C(SCCNC(=O)CCNC(=O)C(O)C(C)(C)CO)C[C@H]12 (relative stereo) [OA-6129B2]
MIC (Ent. cloacae 45): 50 µg/mL (≈ 106 µM) | MIC (Comamonas terrigena B996): 0.39 µg/mL (≈ 0.824 µM) | MIC [1]: 6.25 µg/mL (≈ 13.2 µM) | MIC [2]: 25 µg/mL (≈ 52.8 µM) | MIC (Alcaligenes Faecolis A1): 6.25 µg/mL (≈ 13.2 µM) | MIC (Ser. marcesceus T55): 50 µg/mL (≈ 106 µM) | MIC (P. vulgaris GN76): 50 µg/mL (≈ 106 µM) | MIC [3]: > 100 µg/mL | MIC [4]: 12.5 µg/mL (≈ 26.4 µM) | MIC (Ent. sp. E8): 25 µg/mL (≈ 52.8 µM) | MIC (S. aureus Smith): 12.5 µg/mL (≈ 26.4 µM) | MIC (Escherichia coli K-12): 12.5 µg/mL (≈ 26.4 µM) | MIC (S. aureus Russell): 12.5 µg/mL (≈ 26.4 µM) | MIC (Proteus mirabilis P6): 50 µg/mL (≈ 106 µM) | MIC (Serratia marcesceus S18): 25 µg/mL (≈ 52.8 µM) | MIC (Ps. aeruginosa NCTC10490): > 100 µg/mL | MIC (Sarcina lutea S19): 6.25 µg/mL (≈ 13.2 µM) | MIC [5]: 1.56 µg/mL (≈ 3.29 µM) | MIC (P. rettgeri P7): 25 µg/mL (≈ 52.8 µM) | MIC (Providencia sp. P8): 6.25 µg/mL (≈ 13.2 µM) | MIC (S. epidermidis): 12.5 µg/mL (≈ 26.4 µM) | MIC [6]: 25 µg/mL (≈ 52.8 µM) | MIC (E. coli RGN823): 12.5 µg/mL (≈ 26.4 µM) | zone of inhibition at 100 µg/mL ([7]; Citrobacter freundii, GN346, plate: None, read-out: diameter of inhibition zones): 12 mm | diameter of inhibition zones ([7]; plate: + CER): 16.0 mm | diameter of inhibition zones ([7]; plate: + PCG): 13.0 mm | zone of inhibition at 100 µg/mL (Proteus vulgaris GN76 [8]; Proteus vulgaris, GN76, plate: None, read-out: diameter of inhibition zones): 0 mm | diameter of inhibition zones (Proteus vulgaris GN76 [8]; plate: + CER): 20.0 mm | diameter of inhibition zones (Proteus vulgaris GN76 [8]; plate: + PCG): 19.5 mm | zone of inhibition at 100 µg/mL (Enterobacter cloacac 45; Enterobacter, 45, plate: None, read-out: diameter of inhibition zones): 10 mm | diameter of inhibition zones (Enterobacter cloacac 45; plate: + CER): 15.0 mm | diameter of inhibition zones (Enterobacter cloacac 45; plate: + PCG): 12.0 mm | zone of inhibition at 100 µg/mL (Serratia marccscens T55; Serratia, T55, plate: None, read-out: diameter of inhibition zones): 12 mm | diameter of inhibition zones (Serratia marccscens T55; plate: + CER): 22.0 mm | diameter of inhibition zones (Serratia marccscens T55; plate: + PCG, reduced to 5 μg/ml (final concentration)): 12.0 mm

CC1(C)S[C@@H]2[C@H](NC(=O)[C@H](N)c3ccccc3)C(=O)N2[C@H]1C(=O)O [ABPC, Aminobenzylpenicillin]
MIC of ABPC in combination ([9]; with OA-6129A 6.25 μg/ml): 313 µg/mL | MIC of ABPC in combination ([9]; with OA-6129A 25 μg/ml): < 5 µg/mL | MIC of ABPC in combination ([9]; with OA-6129A 50 μg/ml): < 5 µg/mL | MIC of ABPC in combination ([9]; with OA-6129A […]): 625 µg/mL | MIC of ABPC in combination (Proteus vulgaris GN76 [10]; with OA-6129A 1.56 μg/ml): 3.3 µg/mL | MIC of ABPC in combination (Proteus vulgaris GN76 [10]; with OA-6129A 6.25 μg/ml): 39 µg/mL | MIC of ABPC in combination (Proteus vulgaris GN76 [10]; with OA-6129A 25 μg/ml): 10 µg/mL | MIC of ABPC in combination (Proteus vulgaris GN76 [10]; with OA-6129A 50 μg/ml): < 5 µg/mL | MIC of ABPC in combination (Proteus vulgaris GN76 [10]; with OA-6129A […]): 156 µg/mL
